Patent US9453005B2, “Inhibition of influenza M2 proton channel” (The Trustees Of The University Of Pennsylvania, priority 2008, dated 2016)

Biological target: AM2(V27A) (Influenza A virus, UniProt P0DOF5, V27A)
Format: biochemical

Row | Compound | % Activity
1 | NC1CCC2(CCCCC2)CC1 [Compound 8, Spiro[5.5]undec-3-ylamine] | 8 (47.34%) 9 (68.39%)
2 | CNC1CCC2(CCCCC2)CC1 [Compound 9, Methyl-spiro[5.5]undec-3-yl-amine] | 8 (47.34%) 9 (68.39%)
3 | Cl.NC12CC3CC(CC(C3)C1)C2 [amantadine, reference compound] | 99.1%
